The values that follow come from patent US20240262814A1, “MODULATORS OF TREX1” (Constellation Pharmaceuticals, Inc., priority 2021, published 2024).

In one experiment the target is T1, human TREX2 (Homo sapiens, UniProt Q9BQ50).
T1 construct: human TREX2 (residues M44-A279, expressed in E. coli); made in house; host or cells: E. coli
T1 sequence (Q9BQ50 44-279 isoform Q9BQ50-1): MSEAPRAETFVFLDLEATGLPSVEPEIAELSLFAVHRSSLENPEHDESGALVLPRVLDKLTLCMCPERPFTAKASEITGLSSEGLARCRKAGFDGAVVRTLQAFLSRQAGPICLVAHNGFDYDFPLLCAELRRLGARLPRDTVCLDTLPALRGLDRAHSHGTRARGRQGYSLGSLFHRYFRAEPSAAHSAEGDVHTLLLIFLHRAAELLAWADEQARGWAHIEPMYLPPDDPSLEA
Put plainly: hTREX2 Biochemical Assay (selectivity hTREX1 vs hTREX2). The conditions noted are these: biochemical selectivity for hTREX1 vs hTREX2. As to the method: Degradation of the dsDNA liberates free fluorophore to produce a fluorescent signal. Specifically, 7.5 p L of N-terminally His-Tev tagged human TREX2 (residues M44-A279, expressed in E. coli and purified in house) in reaction buffer (50 mM Tris, 150 mM NaCl, 2 mM DTT, 0.1 mg/mL BSA, 0.01% (w/v) Tween-20, 5 mM MgCl2, pH 7.4) was added to a 384-well Black ProxiPlate Plus (PerkinElmer) which already contained compound (150 nL) at varying concentrations as a 10 point dose-response in DMSO. The plate was incubated at 25° C. for 4 hours. Reactions were initiated by adding 7.5 μL of dsDNA substrate (Strand A: 5′ TEX615/GCT AGG CAG 3′; Strand B: 5′ CTG CCT AGC/IAbRQSp (IDT)) in reaction buffer. Final concentrations were 50 pM TREX2, 60 nM dsDNA substrate in reaction buffer with 1.0% DMSO (v/v). After 18 hours at 25° C., reactions were quenched by the addition of 2 μL of 500 mM EDTA. Final concentrations in the quenched reaction mixture were 44 pM TREX2, 53 nM DNA and 59 mM EDTA in a volume of 17 μL. After a 5-minute incubation at room temperature, plates were read in an EnVision plate reader (PerkinElmer) measuring fluorescence at 615 nm following excitation w/ 570 nm light. IC50 values were calculated by comparing the measured fluorescence at 615 nm relative to control wells pre-quenched w/ stop buffer (100% inhibition) and no inhibitor (0% inhibition) controls as using non-linear least square four parameter fits and either Genedata or GraphPad Prism (GraphPad Software, Inc.).

In a further experiment the target is T2, human TREX1 (Homo sapiens, UniProt Q9NSU2).
T2 construct: N-terminally His-Tev tagged full length human TREX1; made in house; host or cells: E. coli
T2 sequence (Q9NSU2 1-314): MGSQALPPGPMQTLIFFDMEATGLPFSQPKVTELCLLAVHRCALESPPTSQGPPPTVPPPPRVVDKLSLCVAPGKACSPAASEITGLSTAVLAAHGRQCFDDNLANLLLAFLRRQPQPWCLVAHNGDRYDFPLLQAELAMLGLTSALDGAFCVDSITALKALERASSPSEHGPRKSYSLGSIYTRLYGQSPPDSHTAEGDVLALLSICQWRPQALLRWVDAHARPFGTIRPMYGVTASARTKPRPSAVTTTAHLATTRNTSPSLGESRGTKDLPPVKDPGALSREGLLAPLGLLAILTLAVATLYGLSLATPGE
Put plainly: hTREX1 Biochemical Assay (fluorescence, dsDNA substrate degradation). The conditions noted are these: full length human TREX1, 4 h pre-incubation, 18 h reaction at 25° C. As to the method:
(§1) Degradation of the dsDNA liberates free fluorophore to produce a fluorescent signal. Specifically, 7.5 μL of N-terminally His-Tev tagged full length human TREX1 (expressed in E. coli and purified in house) in reaction buffer (50 mM Tris, 150 mM NaCl, 2 mM DTT, 0.1 mg/mL BSA, 0.01% (w/v) Tween-20, 5 mM MgCl2, pH 7.4) was added to a 384-well Black ProxiPlate Plus (PerkinElmer) which already contained compound (150 nL) at varying concentrations as a 10 point dose-response in DMSO. The plate was incubated at 25° C. for 4 hours. Reactions were initiated by adding 7.5 μL of dsDNA substrate (Strand A: 5′ TEX615/GCT AGG CAG 3′; Strand B: 5′ CTG CCT AGC/IAbRQSp (Integrated DNA Technologies)) in reaction buffer. Final concentrations were 4 pM TREX1, 60 nM dsDNA substrate in reaction buffer with 1.0% DMSO (v/v). After 18 hours at 25° C., reactions were quenched by the addition of 2 p L of 500 mM EDTA. Final concentrations in the quenched reaction were 3.5 pM TREX1, 53 nM DNA and 59 mM EDTA in a volume of 17 μL. After a 5-minute incubation at room temperature, plates were read in an EnVision plate reader (PerkinElmer) measuring fluorescence at 615 nm following excitation w/ 570 nm light. IC50 values were calculated by comparing the measured fluorescence at 615 nm relative to control wells pre-quenched w/ EDTA (100% inhibition) and no inhibitor (0% inhibition) controls as using non-linear least square four parameter fits and either Genedata or GraphPad Prism (GraphPad Software, Inc.).

The next experiment concerns the target T3, mouse TREX1 (Mus musculus, UniProt Q91XB0).
T3 construct: N-terminally His-Tev tagged full length mouse TREX1; made in house; host or cells: E. coli
T3 sequence (Q91XB0 1-314): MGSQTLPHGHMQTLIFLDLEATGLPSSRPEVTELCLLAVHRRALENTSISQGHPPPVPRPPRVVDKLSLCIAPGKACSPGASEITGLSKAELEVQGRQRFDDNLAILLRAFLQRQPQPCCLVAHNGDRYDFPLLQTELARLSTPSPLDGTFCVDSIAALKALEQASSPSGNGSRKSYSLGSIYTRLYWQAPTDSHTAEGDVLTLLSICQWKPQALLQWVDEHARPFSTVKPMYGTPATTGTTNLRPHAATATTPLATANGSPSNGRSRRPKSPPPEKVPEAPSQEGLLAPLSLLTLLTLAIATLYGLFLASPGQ
Put plainly: mTREX1 Biochemical Assay (fluorescence, dsDNA substrate degradation). The conditions noted are these: full length mouse TREX1, 4 h pre-incubation, 18 h reaction at 25° C. As to the method:
as §1, with “Specifically, 7.5 p L of N-terminally” for “Specifically, 7.5 μL of N-terminally”, “full length mouse TREX1 (expressed” for “full length human TREX1 (expressed”, “concentrations were 6 pM TREX1,” for “concentrations were 4 pM TREX1,”, “reaction were 5.3 pM TREX1,” for “reaction were 3.5 pM TREX1,”, “of 17 p L. After a” for “of 17 μL. After a”

Molecules are shown by their SMILES. Some results are limits rather than exact numbers.

By IC50 is commonly meant the concentration at which inhibition is half-maximal. On to `CC(c1nc(C(=O)Nc2cnoc2)c(O)c(=O)n1C)C(c1ccccc1)c1cc(Cl)ccc1C#N` (single isomer, unassigned) [Example 8 Isomer 4], for which, at human TREX2, the “hTREX1 vs hTREX2 selectivity” value was “B (B = 25 to 50 fold selective for hTREX1)”. For the same compound, the figures for the concentration for half-maximal inhibition (IC50) at human TREX1 and at mouse TREX1 were 10 to 100 nM and greater than 10 nM, respectively.
As to `CC(c1nc(C(=O)Nc2cnoc2)c(O)c(=O)n1C)C(c1ccccc1)c1ccc(Cl)cc1C#N` (single isomer, unassigned) [Example 9 Isomer 1], at human TREX2, the “hTREX1 vs hTREX2 selectivity” value is given as “C (C = >50 fold selective for hTREX1)”. The figures for the 50% inhibitory concentration (IC50) against human TREX1 and on mouse TREX1 were 1 to 10 nM and greater than 10 nM, respectively.
Turning to `CC(c1nc(C(=O)Nc2cnoc2)c(O)c(=O)n1C)C(c1ccccc1)c1ccc(Cl)cc1C#N` (single isomer, unassigned) [Example 9 Isomer 2], the “hTREX1 vs hTREX2 selectivity” value on human TREX2 was “B (B = 25 to 50 fold selective for hTREX1)”. The IC50 against human TREX1 was greater than 100 nM; against mouse TREX1, greater than 10 nM.
For `CC(c1nc(C(=O)Nc2cnoc2)c(O)c(=O)n1C)C(c1ccccc1Cl)c1ccccc1C#N` (single isomer, unassigned) [Example 10 Isomer 2], in that order: “B (B = 25 to 50 fold selective for hTREX1)”, 10 to 100 nM and greater than 10 nM.
As to `CC(c1nc(C(=O)Nc2cnoc2)c(O)c(=O)n1C)C(c1ccccc1Cl)c1ccccc1C#N` (single isomer, unassigned) [Example 10 Isomer 3], on human TREX2, the “hTREX1 vs hTREX2 selectivity” value is on record as “C (C = >50 fold selective for hTREX1)”. Further, the IC50 was less than 1 nM against human TREX1 and 1 to 10 nM at mouse TREX1.
For `CC(c1nc(C(=O)Nc2cnoc2)c(O)c(=O)n1C)C(c1ccccc1Cl)c1ccccc1C#N` (single isomer, unassigned) [Example 10 Isomer 4], in that order: “C (C = >50 fold selective for hTREX1)”, less than 1 nM and 1 to 10 nM.
`CC(c1nc(C(=O)Nc2cnoc2)c(O)c(=O)n1C)C(c1cc(F)cc(F)c1)c1ccccc1C#N` (single isomer, unassigned) [Example 11 Isomer 2]: on human TREX2, the “hTREX1 vs hTREX2 selectivity” value is given as “C (C = >50 fold selective for hTREX1)”. For the same compound, the IC50 on human TREX1 is 1 to 10 nM; against mouse TREX1, greater than 10 nM.
With `CC(c1nc(C(=O)Nc2cnoc2)c(O)c(=O)n1C)C(c1cc(F)cc(F)c1)c1ccccc1C#N` (single isomer, unassigned) [Example 11 Isomer 4], the “hTREX1 vs hTREX2 selectivity” value at human TREX2 was “A (A = <25 fold selective for hTREX1)”. In addition, the IC50 at human TREX1 and against mouse TREX1 was 1 to 10 nM each time.
Take `CC(c1nc(C(=O)Nc2cnoc2)c(O)c(=O)n1C)C(c1ccc(F)c(F)c1)c1ccccc1C#N` (single isomer, unassigned) [Example 12 Isomer 1]: at human TREX2, the “hTREX1 vs hTREX2 selectivity” value is “C (C = >50 fold selective for hTREX1)”. The IC50 against human TREX1 was 1 to 10 nM; at mouse TREX1, greater than 10 nM.
With `CC(c1nc(C(=O)Nc2cnoc2)c(O)c(=O)n1C)C(c1ccc(F)c(F)c1)c1ccccc1C#N` (single isomer, unassigned) [Example 12 Isomer 3], the “hTREX1 vs hTREX2 selectivity” value on human TREX2 is “B (B = 25 to 50 fold selective for hTREX1)”. For the same compound, the IC50 at human TREX1 and against mouse TREX1 was less than 1 nM throughout.
Consider `CC(c1nc(C(=O)Nc2cnoc2)c(O)c(=O)n1C)C(c1ccc(F)c(F)c1)c1ccccc1C#N` (single isomer, unassigned) [Example 12 Isomer 4], for which, on human TREX2, the “hTREX1 vs hTREX2 selectivity” value is reported as “A (A = <25 fold selective for hTREX1)”. Moreover, the concentration for half-maximal inhibition (IC50) against human TREX1 was 10 to 100 nM; on mouse TREX1, greater than 10 nM.
As to `CC(c1nc(C(=O)Nc2cnoc2)c(O)c(=O)n1C)C(c1ccc(F)cc1F)c1ccccc1C#N` (single isomer, unassigned) [Example 13 Isomer 1], the “hTREX1 vs hTREX2 selectivity” value at human TREX2 is reported as “C (C = >50 fold selective for hTREX1)”. Further, the IC50 at human TREX1 and against mouse TREX1 was less than 1 nM throughout.
With `CC(c1nc(C(=O)Nc2cnoc2)c(O)c(=O)n1C)C(c1ccc(F)cc1F)c1ccccc1C#N` (single isomer, unassigned) [Example 13 Isomer 2], the “hTREX1 vs hTREX2 selectivity” value at human TREX2 was “C (C = >50 fold selective for hTREX1)”. The IC50 against human TREX1 is less than 1 nM; at mouse TREX1, 1 to 10 nM.
Regarding `CC(c1nc(C(=O)Nc2cnoc2)c(O)c(=O)n1C)C(c1ccc(F)cc1F)c1ccccc1C#N` (single isomer, unassigned) [Example 13 Isomer 3], at human TREX2, the “hTREX1 vs hTREX2 selectivity” value is “B (B = 25 to 50 fold selective for hTREX1)”. Besides, the values for the IC50 on human TREX1 and against mouse TREX1 were 10 to 100 nM and greater than 10 nM, respectively.
